Test results taken from patent publication US20030040510A1, “Selective estrogen receptor modulators in combination with estrogens” (Endorecherche, Inc., priority 2000, published 2003).
“Also recorded” adds a separate entry of the source. Marks after values point to notes of the source that are not given here.

Experiments:
ovariectomized rats = experiment: 5-diol alone or with Flutamide and/or EM-800 for 12 months in ovariectomized rats (bone mass, serum markers)
[1] = tested on: uterus and vagina of ovariectomized nude mice; experiment: Uterine, vaginal and body weight in the xenograft-bearing OVX nude mice (Example 1)
[2] = tested on: bone metabolism in the rat; experiment: Biochemical parameters of bone metabolism (urine, serum) after DHEA and/or EM-800; assay type: in vivo; details: DHEA 10 mg, EM-800 75 μg
Source text: Data are expressed as the means±SEM.**: P<0.01 experimental versus respective control.
It is particularly important to indicate that the combination of DHEA and EM-800 exerted unexpected beneficial effects on important biochemical parameters of bone metabolism. […] Moreover, no effect of DHEA could be detected on daily urinary calcium or phosphorus excretion (Luo et al., Endocrinology 138: 4435-4444, 1997). EM-800, decreased the urinary hydroxyproline/creatinine ratio by 48% while, similarly to DHEA, no effect of EM-800 was seen on urinary calcium or phosphorus excretion. EM-800, moreover, had no effect on serum alkaline phosphatase activity, a marker of bone formation while DHEA increased the value of the parameter by about 75% (Luo et al., Endocrinology 138: 4435-4444, 1997).

[3] = tested on: ovariectomized female rats; experiment: Prevention of bone loss, body fat, serum cholesterol and ALP, 3-month treatment of OVX rats (Example 5A, experiment 1); assay type: in vivo, Sprague-Dawley rats; details: 3 months
Protocol: (§1) Ten to twelve week-old female Sprague-Dawley rats (Crl:CD(SD)Br) (Charles River Laboratory, St-Constant, Canada) weighing approximately 220-270 g at start of treatment were used. The animals were acclimatized to the environmental conditions (temperature: 22±3° C.; humidity: 50±20%; 12-h light-12-h dark cycles, lights on at 07:15 h) for at least 1 week before starting the experiments. The animals were housed individually and were allowed free access to tap water and a pelleted certified rodent feed (Lab Diet 5002, Ralston Purina, St-Louis, Mo.). Experiments were conducted in an animal facility approved by the Canadian Council on Animal Care (CCAC) and the Association for Assessment and Accreditation of Laboratory Animal Care (AAALAC) in accordance with the CCAC Guide for Care and Use of Experimental Animals.
On day 1 of the study, the animals of the appropriate groups were bilaterally ovariectomized (OVX) under isoflurane anesthesia. […] Treatments were initiated on day 2 of the study and were performed once daily during 3 months.
After 3 months (experiment 1) or 26 weeks (experiment 2) of treatment, individual rats under Isoflurane anesthesia had their whole body skeleton and lumbar spine scanned using dual energy x-ray absorptiometry (DEXA; QDR 4500A, Hologic, Waltham, Mass.) and a Regional High Resolution Scan software. The bone mineral density (BMD) of the lumbar spine (vertebrae L2 to L4) and the total body composition (fat percentage) were determined.
After 3 months (experiment 1) or 26 weeks (experiment 2) of treatment, blood samples were collected at the jugular vein from overnight fasted animals (under Isoflurane anesthesia). Samples were processed for serum preparation and frozen at −80° C. until assay. Serum cholesterol levels and alkaline phospatase activity (ALP) were determined using the Boehringer Mannheim Diagnostic Hitachi 911 Analyzer (Boehringer Mannheim Diagnostic Laboratory Systems).

[4] = tested on: OVX rats having established osteopenia; experiment: Treatment of OVX rats having established osteopenia, 26 weeks (Example 5B): BMD, total body fat; assay type: in vivo, Sprague-Dawley rats; details: treatment started 10 weeks after OVX, 26 weeks daily
Protocol: as §1, with “Height” for “Ten”, “nine month-old” for “twelve week-old”, “Canada)” for “Canada) weighing approximately 220-270 g at start of treatment”, “used in this experiment.” for “used.”, “prior to” for “before starting”, “ovariectomy. Animals were bilaterally ovariectomized (OVX) under isoflurane anesthesia. Twenty animals were kept intact as control.” for “experiments.”
Treatments were initiated 10 weeks after the ovariectomy and were performed once daily during 26 weeks. Animals not receiving a test article were treated with the appropriate vehicle alone during the same period.
Prior to the OVX, prior to the first day treatment (10 weeks after OVX) and after 26 weeks of treatment, individual rats under Isoflurane anesthesia had their whole body skeleton, lumbar spine and right femur scanned using dual energy x-ray absorptiometry (DEXA; QDR 4500A, Hologic, Waltham, Mass.) and a Regional High Resolution Scan software. The bone mineral density (BMD) of the lumbar spine (vertebrae L2 to L4), femur and the total body composition (fat percentage) were determined.

[5] = tested on: bone metabolism in the rat; details: cited from earlier work
[6] = tested on: ZR-75-1 breast tumor xenografts; experiment: Growth of human ZR-75-1 breast tumor xenografts in OVX nude mice supplemented with estrone (DHEA, EM-800; Example 1); details: OVX + E1; for Inhibition of E1-stimulated ZR-75-1 tumor size / Inhibition of terminal tumor weight / Average tumor weight: 9.5 months
ZR-75-1 breast tumors = experiment: Growth and response category of human ZR-75-1 breast tumors in OVX nude mice, 7 antiestrogens, 161 days (Example 8); assay type: in vivo; details: 161 days
Protocol: The mice (5 per cage) were housed in vinyl cages equipped with air filter lids, which were kept in laminar airflow hoods and maintained under pathogen-limiting conditions. The photoperiod was 12 hours of light and 12 hours of darkness (lights on at 07:15). Cages, bedding and food (Agway Pro-Lab R-M-H Diet #4018) were autoclaved before use. Water was autoclaved and provided ad libitum. Bilateral ovariectomy was performed under isoflurane-induced anesthesia. […] Randomization and treatments were started one week later. […] The 17 groups included two control groups (OVX and OVX+Estrone), seven groups supplemented with an estrone implant and treated with an antiestrogen and eight other groups that received an antiestrogen alone. The estrone implants were then removed from the animals in the ovariectomized control group (OVX) and in groups that were to receive the antiestrogen alone. […] Tamoxifen was purchased from […], Israel) while toremifene citrate was purchased from Orion (Espoo, Finland). […] Animals in both control groups received 0.2 ml of the vehicle alone. The antiestrogen suspensions at the appropriate concentration were prepared each month, stored at 4° C. and used under constant agitation. Powder stock were hermetically stored at 4° C. […] Tumor response was assessed at the end of the study or at death of each animal, if it occurred during the course of the experiment. In this case, only data of mice that survived for at least half of the study (84 days) were used in the tumor response analysis.

endometrial epithelium = experiment: Thickness of uterine (endometrial) epithelial cells in the mice of Example 8; assay type: in vivo, nude mice; details: OVX + antiestrogen 200 μg daily, no estrone, 161 days
Source text: The 17 groups included two control groups (OVX and OVX+Estrone), seven groups supplemented with an estrone implant and treated with an antiestrogen and eight other groups that received an antiestrogen alone. The estrone implants were then removed from the animals in the ovariectomized control group (OVX) and in groups that were to receive the antiestrogen alone. […] Tamoxifen was purchased from […], Israel) while toremifene citrate was purchased from Orion (Espoo, Finland). […] Animals in both control groups received 0.2 ml of the vehicle alone. The antiestrogen suspensions at the appropriate concentration were prepared each month, stored at 4° C. and used under constant agitation. Powder stock were hermetically stored at 4° C. […] After 161 days of treatment, the remaining animals were anesthetized with isoflurane and killed by exsanguination. […] The uteri were prepared to evaluate endometrial thickness by image analysis performed with Image Pro-Plus (Media Cybernetics, Maryland, USA). […] Hematoxylin- and eosin-stained sections of mice uteri were analysed. […] Mean epithelial cell height was measured in all animals of each group.

[7] = tested on: breast and endometrial tissues; experiment: Antiestrogens tested for SERM function and estrogenic activity in breast and endometrium
Source text: As used herein, a selective estrogen receptor modulator (SERM) is a compound that either directly or through its active metabolite functions as an estrogen receptor antagonist (“antiestrogen”) in breast tissue, yet provides estrogenic or estrogen-like effect on bone tissue and on serum cholesterol levels (i.e. by reducing serum cholesterol). Non-steroidal compounds that function as estrogen receptor antagonists in vitro or in human or rat breast tissue (especially if the compound acts as an antiestrogen on human breast cancer cells) is likely to function as a SERM. Conversely, steroidal antiestrogens tend not to function as SERMs because they tend not to display any beneficial effect on serum cholesterol. […] These SERMs may be called “pure SERMs”. […] This second series of SERMs may be called “mixed SERMs”. The unwanted estrogenic activities of these “mixed SERMs”, may be inhibited by addition of pure “SERMs” as shown in FIGS. 6 and 7 in in vitro tests and in FIG. 9 in an in vivo test of breast cancer.

[8] = OVX rats, E2 1 mg/kg, EM-652.HCl 2.5 mg/kg, DHEA 80 mg/kg
[9] = DHEA 0.3 mg (alone or with EM-800 15 μg)
[10] = DHEA 1.0 mg (alone or with EM-800 15 μg)
[11] = DHEA 3.0 mg (alone or with EM-800 15 μg)

SMILES: C[C@]12CC[C@H]3[C@@H](CC=C4C[C@@H](O)CC[C@@]43C)[C@@H]1CC[C@@H]2O [5-diol, androst-5-ene-3β,17β-diol]
- Serum alkaline phosphatase activity (ovariectomized rats; 5-diol): marked stimulation
- Urinary ratio of calcium to creatinine (ovariectomized rats; 5-diol): no statistically significant inhibitory effect
- Reduction of serum cholesterol (ovariectomized rats; highest dose of 5-diol): 23%

SMILES: C[C@]12CC[C@H](O)CC1=CC[C@@H]1[C@@H]2CC[C@]2(C)C(=O)CC[C@@H]12 [DHEA, dehydroepiandrosterone, reference compound]
- Effect on body weight adjusted for tumor weight ([1]; 9.5 months): No significant effect
- Effect on estrone-stimulated vaginal weight ([1]; addition of DHEA to estrone): had no significant effect
- Inhibition of the stimulatory effect of estrone on uterine weight ([1]; highest dose of DHEA used): 26%
- Serum tALP [2]: 198.38 ± 30.76* IU/L
- Urine HP/Cr [2]: 14.02 ± 1.59 μmol/mmol
- Urine calcium [2]: 25.87 ± 3.54 μmol/24h/100g
- Urine phosphorus [2]: 151.41 ± 14.57 μmol/24h/100g
- Serum ALP ([3]; OVX rats): 224±18 IU/L
- Serum cholesterol ([3]; OVX rats): 1.59 ± 0.10 mmol/L
- Total fat ([3]; OVX rats): 17.3 ± 1.5 %
- Lumbar spine BMD [3, 8]: 0.2321 ± 0.0034 g/cm^2
- Lumbar spine, Prevention of Bone Loss [3, 8]: 43%
- Femoral BMD [4]: completely prevented the further decrease
- Lumbar spine BMD [4]: completely prevented the further decrease
- Total body fat [4]: prevented the 17% increase
- Decrease of urinary hydroxyproline/creatinine ratio [5]: did not affect; also recorded: did not show any effect
- Effect on daily urinary calcium or phosphorus excretion [5]: no effect
- Increase of serum alkaline phosphatase activity [5]: about 75%
- Inhibition of E1-stimulated ZR-75-1 tumor size ([6]; DHEA 0.3 mg percutaneous): 50.4%
- Inhibition of terminal tumor weight ([6]; DHEA 0.3 mg): 67%
- Inhibition of E1-stimulated ZR-75-1 tumor size ([6]; DHEA 1.0 mg percutaneous): 76.8%
- Inhibition of terminal tumor weight ([6]; DHEA 1.0 mg): 82%
- Inhibition of E1-stimulated ZR-75-1 tumor size ([6]; DHEA 3.0 mg percutaneous): 80.0%
- Inhibition of terminal tumor weight ([6]; DHEA 3.0 mg): 85%
- Category of response: Partial [6, 9]: 0 (0) Number and (%)
- Average tumor weight [6, 9]: 0.37 ± 0.12 g
- Category of response: Partial [6, 10]: 0 (0) Number and (%)
- Average tumor weight [6, 10]: 0.20 ± 0.06 g
- Category of response: Partial [6, 11]: 0 (0) Number and (%)
- Average tumor weight [6, 11]: 0.17 ± 0.06 g

SMILES: CC(C)C(=O)Nc1ccc([N+](=O)[O-])c(C(F)(F)F)c1 [FLU, Flutamide]
- Reversal of 5-diol-stimulated serum alkaline phosphatase activity (ovariectomized rats; simultaneous FLU, vs 12.5 mg 5-diol alone): 57%

SMILES: CC/C(=C(\c1ccccc1)c1ccc(/C=C/C(=O)O)cc1)c1ccccc1 [GW 5638]
- Serum ALP ([3]; OVX rats): 72 ± 6 IU/L
- OVX-induced increase on serum cholesterol levels ([3]; alone or in combination with E2): completely prevented
- Progressing tumors (ZR-75-1 breast tumors; 50 μg daily + estrone): 77%
- Change of ZR-75-1 tumor size compared to the OVX control group (ZR-75-1 breast tumors; 200 μg daily alone, absence of estrone): did not significantly change
- Endometrial epithelium thickness (endometrial epithelium): 22.22^a ± 0.05 μm
- Function as SERM [7]: found to function as SERMs
- Estrogenic activity in breast and endometrial tissues ([7]; physiological or pharmacological concentrations): have some estrogenic activities
